Results as given in patent US20260083704A1, “LXR MODULATORS WITH BICYCLIC CORE MOIETY FOR TREATING DYSLIPIDEMIAS” (OrsoBio, Inc., priority 2022, published 2026).

Tests used:
[1] = Pharmacokinetics in mice after single oral dosing (blood/plasma and liver exposure); type: in vivo; conditions: 20 mg/kg single oral dose
Method: The pharmacokinetics of the compounds was assessed in mice after single dosing and oral administrations. Blood/plasma and liver exposure was measured via LC-MS.
The study design was as follows: • Animals: C57/bl6/J (Janvier) males • Diet: standard rodent chow • Dose: 20 mg/kg • Animal handling: animals were withdrawn from food at least 12 h before administration • Design: single dose oral administration, n=3 animals per group • Sacrifice: at stated time point (4, 12 or 24 h) after administration • Bioanalytics: LC-MS of liver and blood/plasma samples

LXRβ [2] = target: T1, LXRβ (Homo sapiens, UniProt P55055); test: LXR Gal4 reporter transient transfection assay (mammalian two-hybrid, HEK293), LXRβ; type: cell-based; set-up: LXRβ (amino acids 156-461); expressed in transfected cells; host or cells: HEK293; conditions: full length (FL) LXRβ, HEK293; read-out: FL-M2H Gal4β
T1 sequence (P55055 1-460): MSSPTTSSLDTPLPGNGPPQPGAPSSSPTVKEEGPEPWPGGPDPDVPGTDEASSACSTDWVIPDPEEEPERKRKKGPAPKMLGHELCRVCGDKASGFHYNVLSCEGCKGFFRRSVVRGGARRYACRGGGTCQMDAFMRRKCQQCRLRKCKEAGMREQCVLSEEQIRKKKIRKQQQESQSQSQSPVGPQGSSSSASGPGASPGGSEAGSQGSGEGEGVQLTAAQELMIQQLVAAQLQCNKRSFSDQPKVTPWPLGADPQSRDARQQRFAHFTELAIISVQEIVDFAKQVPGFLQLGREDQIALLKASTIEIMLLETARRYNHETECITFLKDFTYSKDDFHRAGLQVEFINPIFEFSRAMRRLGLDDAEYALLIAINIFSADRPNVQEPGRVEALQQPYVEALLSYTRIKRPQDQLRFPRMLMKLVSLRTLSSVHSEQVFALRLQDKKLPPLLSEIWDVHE
Procedure, shortened: (§1)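 Mammalian two-hybrid read-out of LXR–coactivator (SRC1) or corepressor (NCoR) interaction: firefly luciferase under GAL4 response elements, normalised via Renilla co-transfection. LXRα/β full-length or LBD fusions expressed transiently in HEK293; compounds (final DMSO ≤0.2%) given 4 h after transfection for 16 h before lysis.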

LXRα = target: T2, LXRα (Homo sapiens, UniProt Q13133); test: LXR Gal4 reporter transient transfection assay (mammalian two-hybrid, HEK293), LXRα; type: cell-based; set-up: expressed in transfected cells; host or cells: HEK293; conditions: full length (FL) LXRα, HEK293; read-out: FL-M2H Gal4α
T2 sequence (Q13133 1-447): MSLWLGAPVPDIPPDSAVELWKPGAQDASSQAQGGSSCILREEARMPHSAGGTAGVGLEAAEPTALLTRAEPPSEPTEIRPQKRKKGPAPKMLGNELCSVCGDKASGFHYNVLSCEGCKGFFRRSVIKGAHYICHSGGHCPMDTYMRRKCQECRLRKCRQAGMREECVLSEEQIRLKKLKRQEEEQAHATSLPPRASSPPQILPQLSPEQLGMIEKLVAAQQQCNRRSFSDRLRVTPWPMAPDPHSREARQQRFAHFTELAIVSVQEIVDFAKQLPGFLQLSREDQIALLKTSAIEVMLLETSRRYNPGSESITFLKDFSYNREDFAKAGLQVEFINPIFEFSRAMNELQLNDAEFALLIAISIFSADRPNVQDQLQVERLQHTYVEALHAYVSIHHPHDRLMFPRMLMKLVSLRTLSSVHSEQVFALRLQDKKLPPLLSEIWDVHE
Method: LXRα and LXRβ activity status was determined via detection of interaction with coactivator and corepressor proteins in mammalian two-hybrid experiments (M2H). For this, via transient transfection the full length (FL) proteins of LXRα (amino acids 1-447; NP005684; SEQ ID NO:1) or LXRβ-(amino acids 1-461; NP009052; SEQ ID NO:2) or the ligand-binding domains (LBD) of LXRα (amino acids 155-447 SEQ ID NO:3) or LXRβ (amino acids 156-461; SEQ ID NO:4) were expressed from pCMV-AD (Stratagene) as fusions to the transcriptional activation domain of NFkB. As cofactors, domains of either the steroid receptor coactivator 1 (SRC1; amino acids 552-887; SEQ ID NO:5) or of the corepressor NCoR (amino acids 1906-2312; NP006302; SEQ ID NO:6) were expressed as fusions to the DNA binding domain of the yeast transcription factor GAL4 (from pCMV-BD; Stratagene). Interaction was monitored via activation of a coexpressed Firefly Luciferase Reporter gene under control of a promoter containing repetitive GAL4 response elements (vector pFRLuc; Stratagene). Transfection efficiency was controlled via cotransfection of constitutively active pRL-CMV Renilla reniformis luciferase reporter (Promega). HEK293 cells were grown in minimum essential medium (MEM) with 2 mM L-glutamine and Earle's balanced salt solution supplemented with 8.3% fetal bovine serum, 0.1 mM non-essential amino acids, 1 mM sodium pyruvate, at 37° C. in 5% CO2. 3.5×10^4 cells/well were plated in 96-well cell culture plates in growth medium supplemented with 8.3% fetal bovine serum for 16-20 h to ˜90% confluency. For transfection, medium was taken off and LXR and cofactor expressing plasmids as well as the reporter plasmids are added in 30 μL OPTIMEM/well including polyethylene-imine (PEI) as vehicle. Typical amounts of plasmids transfected/well: pCMV-AD-LXR (5 ng), pCMV-BD-cofactor (5 ng), pFR-Luc (100 ng), pRL-CMV (0.5 ng). Compound stocks were prepared in DMSO, prediluted in MEM to a total volume of 120 μL, and added 4 h after addition of the transfection mixture (final vehicle concentration not exceeding 0.2%). Cells were incubated for additional 16 h, lysed for 10 min in 1×Passive Lysis Buffer (Promega) and Firefly and Renilla luciferase activities were measured sequentially in the same cell extract using buffers containing D-luciferine and coelenterazine, respectively. Measurements of luminescence were done in a BMG-luminometer.
(§2) The potencies of Compound 21/3 and its analog, Compound pre-6/3, against LXRα and LXRβ were evaluated in biochemical binding assays, cellular mammalian two-hybrid (M2H) interaction assays evaluating nuclear receptor co-repressor (NCOR) recruitment, and cellular reporter assays evaluating transcriptional activity (Table 5).

[3] = tested on: SREBP1c reporter in HepG2; test: HepG2 SREBP1c reporter assay; type: cell-based; conditions: Homo sapiens; HepG2, mean ± SD
Method: as §2

ABCA1 reporter in HT-29 = test: HT-29 ABCA1 reporter assay; type: cell-based; conditions: Homo sapiens; HT-29, mean ± SD
Method: as §2

LXRβ [4] = target: LXRβ (Homo sapiens, UniProt P55055); test: LXR Gal4 reporter transient transfection assay (mammalian two-hybrid, HEK293), LXRβ; type: cell-based; conditions: HEK293, NCOR recruitment, mean ± SD; read-out: HEK293 LXRβ/NCOR recruitment (M2H) EC50
Procedure, shortened: as §1
Target sequence in this assay (O75376 1906-2312 partner, one chain of several): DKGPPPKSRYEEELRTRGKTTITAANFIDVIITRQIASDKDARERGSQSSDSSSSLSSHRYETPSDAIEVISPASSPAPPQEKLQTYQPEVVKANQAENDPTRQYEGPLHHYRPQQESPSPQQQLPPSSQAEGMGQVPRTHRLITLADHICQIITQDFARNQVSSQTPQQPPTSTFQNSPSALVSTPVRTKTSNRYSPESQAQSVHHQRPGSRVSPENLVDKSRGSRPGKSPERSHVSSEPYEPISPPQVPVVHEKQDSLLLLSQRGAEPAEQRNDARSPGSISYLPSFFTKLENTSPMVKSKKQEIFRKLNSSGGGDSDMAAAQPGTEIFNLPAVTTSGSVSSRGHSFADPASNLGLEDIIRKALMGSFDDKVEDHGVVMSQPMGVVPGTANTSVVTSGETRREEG

LXRβ [5] = target: T1, LXRβ; test: Biochemical binding assay LXRβ; conditions: mean ± SD
Method: as §2

SMILES | EC50 (LXRβ [2]) [nM] | further results
Cc1ccc(S(=O)(=O)n2c(-c3cccc(-c4ccc(C(=O)O)cc4Cl)c3)c(-c3ccsc3C#N)c3cc(F)ccc32)cc1 [3/48] | < 100 | liver exposure ([1]; time point 12 h): A (<300 nM); blood/plasma exposure (below LLOQ) ([1]; time point 12 h, number is the LLOQ): (1.2 ng/mL)
O=C(O)c1ccc(-c2cccc(-c3c(-c4ccccc4C4COC4)c4cc(F)ccc4n3S(=O)(=O)c3ccc(C(F)F)cc3)c2)c(Cl)c1 [3/59] | < 100 | 
Cc1ccc(S(=O)(=O)n2c(-c3cccc(C45CCC(C(=O)O)(CC4)CC5)c3)c(-c3ccsc3C#N)c3cc(F)ccc32)cc1 [3/64] | < 100 | 
N#Cc1cccc(C#N)c1-c1c(-c2cccc(-c3c(F)cc(CC(=O)O)cc3F)c2)n(S(=O)(=O)c2ccc(C(F)F)cc2)c2ccc(F)cc12 [3/73] | < 100 | 
Cc1ccc(S(=O)(=O)n2c(-c3cccc(-c4ccc(C(=O)O)cc4)c3)c(-c3ccsc3C#N)c3cc(F)ccc32)cc1 [5/3] | < 100 | blood/plasma exposure ([1]; time point 4 h): C (100 nM to <300 nM); liver exposure ([1]; time point 4 h): C (1 μM to ≤3 μM); liver/blood ratio ([1]; time point 4 h): C (10 to ≤30)
CC(=O)NS(=O)(=O)c1ccc(-c2cccc(-c3c(-c4c(C#N)cccc4C#N)c4cc(F)ccc4n3S(=O)(=O)c3ccc(C(F)F)cc3)c2)c(Cl)c1 [8/8] | < 100 | 
N#Cc1cccc(C#N)c1-c1c(-c2cccc(-c3ccc(C(=O)NCCS(=O)(=O)O)cc3Cl)c2)n(S(=O)(=O)c2ccc(C(F)F)cc2)c2ccc(F)cc12 [10/1] | < 100 | 
CN(CCS(=O)(=O)O)C(=O)c1ccc(-c2cccc(-c3c(-c4c(C#N)cccc4C#N)c4cc(F)ccc4n3S(=O)(=O)c3ccc(C(F)F)cc3)c2)c(Cl)c1 [10/2] | < 100 | 
N#Cc1nccnc1-c1c(-c2cccc(-c3cc(F)c(C(=O)O)cc3Cl)c2)n(S(=O)(=O)c2ccc(C(F)F)cc2)c2ccc(F)cc12 [11/11] | < 100 | 
N#Cc1cccc(C#N)c1-c1c(-c2cccc(-c3ccc(C(=O)O)cc3Cl)c2)n(S(=O)(=O)c2ccc(C(F)F)cc2)c2ccc(F)cc12 [11/12] | < 100 | 
O=C(O)c1ccc(-c2cccc(-c3c(-c4c(Cl)cccc4Cl)c4cc(F)ccc4n3S(=O)(=O)c3ccc(C(F)F)cc3)c2)c(Cl)c1 [11/13] | < 100 | 
N#Cc1sccc1-c1c(-c2cccc(-c3ccc(C(=O)O)cc3Cl)c2)n(S(=O)(=O)c2ccc(C(F)(F)F)nc2)c2ccc(F)cc12 [11/16] | < 100 | 
N#Cc1sccc1-c1c(-c2cccc(-c3ccc(C(=O)O)cc3Cl)c2)n(S(=O)(=O)c2ccc(C(F)F)cc2)c2ccc(F)cc12 [11/17] | < 100 | EC50 (LXRα): < 100 nM
O=C(O)c1ccc(-c2cccc(-c3c(-c4ncccc4C(F)(F)F)c4cc(F)ccc4n3S(=O)(=O)c3ccc(C(F)F)cc3)c2)c(Cl)c1 [11/23] | < 100 | 
N#Cc1cccnc1-c1c(-c2cccc(-c3ccc(C(=O)O)cc3Cl)c2)n(S(=O)(=O)c2ccc(C(F)F)cc2)c2ccc(F)cc12 [11/26] | < 100 | 
COc1c(C(=O)O)ccc(-c2cccc(-c3c(-c4ccccc4C#N)c4cc(F)ccc4n3S(=O)(=O)c3ccc(C(F)F)cc3)c2)c1Cl [11/27] | < 100 | 
N#Cc1ccccc1-c1c(-c2cccc(-c3ccc(C(=O)O)cc3Cl)c2)n(S(=O)(=O)c2ccc(C(F)F)cc2)c2ccc(F)cc12 [11/33] | < 100 | 
N#Cc1cccc(C#N)c1-c1c(-c2cccc(-c3ccc(C(=O)O)cc3Cl)c2)n(S(=O)(=O)c2ccc(C(F)(F)F)nc2)c2ccc(F)cc12 [11/37] | < 100 | 
N#Cc1ccccc1-c1c(-c2cccc(-c3ccc(C(=O)O)cc3Cl)c2)n(S(=O)(=O)c2ccc(C(F)F)cc2)c2cnccc12 [11/49] | < 100 | 
N#Cc1cccc(C#N)c1-c1c(-c2cccc(-c3ccc(C(=O)O)cc3F)c2)n(S(=O)(=O)c2ccc(C(F)F)cc2)c2ccc(F)cc12 [11/51] | < 100 | 
N#Cc1cccc(C#N)c1-c1c(-c2cccc(-c3c(F)cc(C(=O)O)cc3F)c2)n(S(=O)(=O)c2ccc(C(F)F)cc2)c2ccc(F)cc12 [11/53] | < 100 | 
N#Cc1cccc(C#N)c1-c1c(-c2cccc([C@H]3CC[C@H](C(=O)O)CC3)c2)n(S(=O)(=O)c2ccc(C(F)F)cc2)c2ccc(F)cc12 [11/62] | < 100 | EC50 (LXRα): < 100 nM
N#Cc1cccc(C#N)c1-c1c(-c2cccc(-c3ccc(C(=O)O)cc3Cl)c2)n(S(=O)(=O)C2CCC(F)(F)CC2)c2ccc(F)cc12 [11/63] | < 100 | 
N#Cc1cccc(C#N)c1-c1c(-c2cccc(-c3cc(F)c(C(=O)O)cc3Cl)c2)n(S(=O)(=O)c2ccc(C(F)F)cc2)c2ccc(F)cc12 [11/65] | < 100 | 
Cc1ccc(S(=O)(=O)n2c(-c3cccc(-c4ccc(C(=O)O)cc4)c3)c(-c3ccsc3C#N)c3cc(F)ccc32)cc1C [23/2] | < 100 | blood/plasma exposure ([1]; time point 4 h): B (300 nM to ≤1 μM); liver exposure ([1]; time point 4 h): D (>3 μM); liver/blood ratio ([1]; time point 4 h): C (10 to ≤30)
CS(=O)(=O)NC(=O)c1ccc(-c2cccc(-c3c(-c4c(C#N)cccc4C#N)c4cc(F)ccc4n3S(=O)(=O)c3ccc(C(F)F)cc3)c2)c(Cl)c1 [32/5] | < 100 | EC50 (LXRα): < 100 nM
N#Cc1cccc(C#N)c1-c1c(-c2cccc(-c3ccc(C(=O)NCC(=O)O)cc3Cl)c2)n(S(=O)(=O)c2ccc(C(F)F)cc2)c2ccc(F)cc12 [Compound 21/3] | < 100 | IC50 [3]: 7 ± 5 nM; IC50 (ABCA1 reporter in HT-29): 15 ± 4 nM; EC50 (LXRβ [4]): 11 ± 19 nM; EC50 (LXRβ [5]): 15 ± 3 nM
N#Cc1cccc(C#N)c1-c1c(-c2cccc(-c3ccc(C(=O)O)cc3Cl)c2)n(S(=O)(=O)c2ccc(C(F)F)cc2)c2ccc(F)cc12 [pre-6/3] |  | IC50 [3]: 0.2 ± 0.1 nM; IC50 (ABCA1 reporter in HT-29): 0.7 ± 0.1 nM; EC50 (LXRβ [4]): 0.4 ± 0.2 nM; EC50 (LXRβ [5]): 17 ± 7 nM
